Experimental data as given in ChEMBL document CHEMBL1133030, “Synthesis and in vitro evaluation of human FP-receptor selective prostaglandin analogues” (Bioorg Med Chem Lett, 2000).

Key:
[1] = biological target: T1, Prostaglandin F2-alpha receptor (Homo sapiens, UniProt P43088); test: Functional activity in RAT-1cells, transiently-transfected with human FP-receptor (% of control ligand, fluprostenol<20%)
[2] = biological target: T2, Prostaglandin E2 receptor EP3 subtype (Homo sapiens, UniProt P43115); test: Functional activity in RAT-1cells, transiently-transfected with human Prostaglandin E receptor EP3 (% of control ligand, sulprostone<20%)
T2 sequence (P43115 whole entry): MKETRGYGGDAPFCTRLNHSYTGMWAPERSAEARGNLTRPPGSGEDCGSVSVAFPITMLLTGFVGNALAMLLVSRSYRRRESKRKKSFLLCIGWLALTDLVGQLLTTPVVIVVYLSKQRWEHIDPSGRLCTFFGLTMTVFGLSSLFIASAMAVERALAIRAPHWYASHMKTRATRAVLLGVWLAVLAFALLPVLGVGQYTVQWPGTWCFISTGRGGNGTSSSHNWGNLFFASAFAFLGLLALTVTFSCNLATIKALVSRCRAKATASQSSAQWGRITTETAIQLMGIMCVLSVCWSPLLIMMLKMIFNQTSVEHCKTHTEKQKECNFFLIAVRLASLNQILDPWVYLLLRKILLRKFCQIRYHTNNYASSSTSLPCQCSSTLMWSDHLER

Thromboxane A2 receptor [3] = biological target: T3, Thromboxane A2 receptor (Homo sapiens, UniProt P21731); test: Functional activity in RAT-1cells, transiently-transfected with human TP-receptor (% of control ligand, [3H]-U-46,619<20%)
T3 sequence (P21731 whole entry): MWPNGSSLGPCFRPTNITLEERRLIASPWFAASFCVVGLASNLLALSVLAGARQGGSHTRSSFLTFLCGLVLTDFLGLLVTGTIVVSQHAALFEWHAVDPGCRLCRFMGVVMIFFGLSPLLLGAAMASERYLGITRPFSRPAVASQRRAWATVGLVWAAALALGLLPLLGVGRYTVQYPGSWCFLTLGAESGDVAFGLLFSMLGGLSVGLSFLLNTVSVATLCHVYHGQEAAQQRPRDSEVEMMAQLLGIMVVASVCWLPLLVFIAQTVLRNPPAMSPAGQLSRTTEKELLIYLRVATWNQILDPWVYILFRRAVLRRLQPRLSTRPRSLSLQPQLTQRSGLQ

[4] = biological target: T1, Prostaglandin F2-alpha receptor; test: Displacement of [3H]PGF2-alpha from human FP-receptor expressed in CHO-KI cells; format: cell-based
[5] = biological target: T4, Prostaglandin E2 receptor EP1 subtype (Homo sapiens, UniProt P34995); test: Functional activity in RAT-1cells, transiently-transfected with human Prostaglandin E receptor EP1 (% of control ligand, 17-phi-PGE2<20%)
T4 sequence (P34995 whole entry): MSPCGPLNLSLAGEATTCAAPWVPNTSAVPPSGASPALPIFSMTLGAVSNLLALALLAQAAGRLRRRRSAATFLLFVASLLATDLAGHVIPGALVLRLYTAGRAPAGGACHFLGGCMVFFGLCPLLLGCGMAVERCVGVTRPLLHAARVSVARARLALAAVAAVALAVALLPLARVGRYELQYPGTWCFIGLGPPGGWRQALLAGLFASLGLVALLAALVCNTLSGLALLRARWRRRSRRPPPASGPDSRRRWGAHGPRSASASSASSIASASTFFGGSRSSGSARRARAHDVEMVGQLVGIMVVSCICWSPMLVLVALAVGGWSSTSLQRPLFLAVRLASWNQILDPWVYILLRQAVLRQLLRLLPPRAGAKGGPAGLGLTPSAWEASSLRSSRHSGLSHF

Thromboxane A2 receptor [6] = biological target: T3, Thromboxane A2 receptor; test: Displacement of [3H]-U-46,619 from human TP-receptor expressed in CHO-KI cells; format: cell-based
[7] = biological target: T2, Prostaglandin E2 receptor EP3 subtype; test: Compound was evaluated for its ability to displace [3H]-PGE-2 from human Prostaglandin E receptor EP3 isolated from CHO-KI cells; format: cell-based
[8] = biological target: T1, Prostaglandin F2-alpha receptor; test: Displacement of [3H]PGF-2 from human FP-receptor expressed in CHO-KI cells; format: cell-based
[9] = biological target: T4, Prostaglandin E2 receptor EP1 subtype; test: Displacement of [3H]PGE-2 from Prostaglandin E receptor EP1 expressed in CHO-KI cells; format: cell-based
[10] = biological target: T4, Prostaglandin E2 receptor EP1 subtype; test: Functional activity in RAT-1cells, transiently-transfected with human Prostaglandin E receptor EP1 (% of control ligand, 17-phi-PGE2<50%)
Thromboxane A2 receptor [11] = biological target: T3, Thromboxane A2 receptor; test: Functional activity in RAT-1cells, transiently-transfected with human TP-receptor (% of control ligand, [3H]-U-46,619=50%)
[12] = biological target: T2, Prostaglandin E2 receptor EP3 subtype; test: Functional activity in RAT-1cells, transiently-transfected with human Prostaglandin E receptor EP3 (% of control ligand, sulprostone<50%)
[13] = biological target: T1, Prostaglandin F2-alpha receptor; test: Functional activity in RAT-1cells, transiently-transfected with human FP-receptor (% of control ligand, fluprostenol=87%)
[14] = biological target: T2, Prostaglandin E2 receptor EP3 subtype; test: Displacement of [3H]PGE-2 from human Prostaglandin E receptor EP3 expressed in CHO-KI cells; format: cell-based
[15] = biological target: T4, Prostaglandin E2 receptor EP1 subtype; test: Compound was evaluated for its ability to displace [3H]PGE-2 from human Prostaglandin E receptor EP1 isolated from CHO-KI cells (% of control ligand, 17-phi-PGE2=80%); format: cell-based
Thromboxane A2 receptor [16] = biological target: T3, Thromboxane A2 receptor; test: Functional activity in RAT-1cells, transiently-transfected with human TP-receptor (% of control ligand, [3H]-U-46,619=90%)
[17] = biological target: T1, Prostaglandin F2-alpha receptor; test: Functional activity in RAT-1cells, transiently-transfected with human FP-receptor (% of control ligand, fluprostenol=100%)
[18] = biological target: T4, Prostaglandin E2 receptor EP1 subtype; test: Functional activity in RAT-1cells, transiently-transfected with human Prostaglandin E receptor EP1 (% of control ligand, 17-phi-PGE2=100%)
[19] = biological target: T1, Prostaglandin F2-alpha receptor; test: Functional activity in RAT-1cells, transiently-transfected with human FP-receptor (% of control ligand, fluprostenol=50%)
Thromboxane A2 receptor [20] = biological target: T3, Thromboxane A2 receptor; test: Functional activity in RAT-1cells, transiently-transfected with human TP-receptor (% of control ligand, [3H]-U-46,619=100%)
[21] = biological target: T1, Prostaglandin F2-alpha receptor; test: Functional activity in RAT-1cells, transiently-transfected with human FP-receptor (% of control ligand, fluprostenol=90%)
[22] = biological target: T4, Prostaglandin E2 receptor EP1 subtype; test: Functional activity in RAT-1cells, transiently-transfected with human Prostaglandin E receptor EP1 (% of control ligand, 17-phi-PGE2=80%)
Thromboxane A2 receptor [23] = biological target: T3, Thromboxane A2 receptor; test: Functional activity in RAT-1cells, transiently-transfected with human TP-receptor (% of control ligand, [3H]-U-46,619=95%)
[24] = biological target: T1, Prostaglandin F2-alpha receptor; test: Functional activity in RAT-1cells, transiently-transfected with human FP-receptor (% of control ligand, fluprostenol=150%)
[25] = biological target: T2, Prostaglandin E2 receptor EP3 subtype; test: Functional activity in RAT-1cells, transiently-transfected with human Prostaglandin E receptor EP3 (% of control ligand, sulprostone=130%)
[26] = biological target: T2, Prostaglandin E2 receptor EP3 subtype; test: Functional activity in RAT-1cells, transiently-transfected with human Prostaglandin E receptor EP3(% of control ligand, sulprostone=75%)
[27] = biological target: T2, Prostaglandin E2 receptor EP3 subtype; test: Functional activity in RAT-1cells, transiently-transfected with human Prostaglandin E receptor EP3 (% of control ligand, sulprostone=50%)

T1 sequence (P43088 whole entry): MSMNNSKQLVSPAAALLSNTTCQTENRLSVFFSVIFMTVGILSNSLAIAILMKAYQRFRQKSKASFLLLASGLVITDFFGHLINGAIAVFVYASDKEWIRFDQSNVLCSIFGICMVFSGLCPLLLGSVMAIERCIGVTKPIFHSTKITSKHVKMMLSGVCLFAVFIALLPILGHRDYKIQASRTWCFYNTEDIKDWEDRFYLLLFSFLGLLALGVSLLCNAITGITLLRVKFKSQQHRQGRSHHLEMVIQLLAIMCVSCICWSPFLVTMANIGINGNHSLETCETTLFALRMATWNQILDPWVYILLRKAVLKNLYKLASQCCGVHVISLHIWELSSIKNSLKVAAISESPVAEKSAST

Row | IC50 (Thromboxane A2 receptor [6]) | IC50 [8] | IC50 [9] | IC50 [14] | further results | Compound
1 |  |  |  |  | EC50 [1]: > 20 µM; EC50 [2]: > 20 µM; EC50 (Thromboxane A2 receptor [3]): > 20 µM; IC50 [4]: > 1000 nM; EC50 [5]: > 20 µM | CCCCC(C)(C)[C@H](O)CC[C@@H]1[C@@H](CCCCCCC(=O)O)[C@@H](O)C[C@H]1O
2 | > 10 µM | 210 nM | > 10 µM |  | IC50 [7]: > 10 µM | N#Cc1cccc(CC[C@H](O)CC[C@@H]2[C@@H](CCCCCCC(=O)O)[C@@H](O)C[C@H]2O)c1
3 |  |  |  |  | EC50 [10]: > 20 µM; IC50 [4]: 10 nM; EC50 (Thromboxane A2 receptor [11]): 2100 nM; EC50 [12]: > 20 µM; EC50 [13]: 64 nM | O=C(O)CCC/C=C\C[C@@H]1[C@@H](/C=C/[C@@H](O)CCc2cccc(C(F)(F)F)c2)[C@H](O)C[C@@H]1O
4 |  | 2140 nM |  |  |  | O=C(O)CCCCCC[C@@H]1[C@@H](CC[C@@H](O)CCc2ccccc2C(F)(F)F)[C@H](O)C[C@@H]1O
5 | > 10 µM | 76 nM | 3.1 µM | > 10 µM |  | O=C(O)CCCCCC[C@@H]1[C@@H](CC[C@@H](O)CCc2ccccc2F)[C@H](O)C[C@@H]1O
6 | > 10 µM | 42 nM | 10 µM | 3.7 µM |  | O=C(O)CCCCCC[C@@H]1[C@@H](CC[C@@H](O)CCc2cccc(F)c2)[C@H](O)C[C@@H]1O
7 |  | 3630 nM |  |  |  | O=C(O)CCCCCC[C@@H]1[C@@H](CC[C@@H](O)CCc2ccc(C(F)(F)F)cc2)[C@H](O)C[C@@H]1O
8 |  | 4400 nM |  |  |  | Cc1ccc(CC[C@H](O)CC[C@@H]2[C@@H](CCCCCCC(=O)O)[C@@H](O)C[C@H]2O)cc1
9 | > 10 µM | 82 nM | 1.1 µM | > 10 µM |  | O=C(O)CCCCCC[C@@H]1[C@@H](CC[C@@H](O)CCc2ccccc2)[C@H](O)C[C@@H]1O
10 | > 10 µM | 1620 nM |  | > 10 µM | IC50 [15]: > 10 µM | COc1cccc(CC[C@H](O)CC[C@@H]2[C@@H](CCCCCCC(=O)O)[C@@H](O)C[C@H]2O)c1
11 |  |  |  |  | IC50 [4]: 1 nM; EC50 (Thromboxane A2 receptor [16]): 8 µM; EC50 [17]: 9 nM; EC50 [12]: > 20 µM; EC50 [18]: 19 µM | O=C(O)CCCCCC[C@@H]1[C@@H](CC[C@@H](O)COc2cccc(Cl)c2)[C@H](O)C[C@@H]1O
12 |  |  |  |  | EC50 [10]: > 10 µM; IC50 [4]: 522 nM; EC50 [19]: 5 µM; EC50 [12]: > 20 µM; EC50 (Thromboxane A2 receptor [20]): 30 µM | CCCCC[C@H](O)CC[C@@H]1[C@@H](CCCCCCC(=O)O)[C@@H](O)C[C@H]1O
13 | > 10 µM | 540 nM | > 10 µM | > 10 µM |  | CCc1cccc(CC[C@H](O)CC[C@@H]2[C@@H](CCCCCCC(=O)O)[C@@H](O)C[C@H]2O)c1
14 | > 10 µM | 210 nM | 3.45 µM | > 10 µM |  | O=C(O)CCCCCC[C@@H]1[C@@H](CC[C@@H](O)CCc2ccc(F)cc2)[C@H](O)C[C@@H]1O
15 | > 10 µM | 630 nM | 10 µM | > 10 µM |  | Cc1ccccc1CC[C@H](O)CC[C@@H]1[C@@H](CCCCCCC(=O)O)[C@@H](O)C[C@H]1O
16 |  | 5890 nM |  |  |  | COc1ccccc1CC[C@H](O)CC[C@@H]1[C@@H](CCCCCCC(=O)O)[C@@H](O)C[C@H]1O
17 | > 10 µM | 8.6 nM | > 10 µM | > 10 µM | IC50 [4]: 8.6 nM; EC50 (Thromboxane A2 receptor [11]): > 20000 nM; EC50 [12]: > 20 µM; EC50 [18]: 30 µM; EC50 [21]: 85 nM | O=C(O)CCCCCC[C@@H]1[C@@H](CC[C@@H](O)CCc2cccc(C(F)(F)F)c2)[C@H](O)C[C@@H]1O
18 |  |  |  |  | IC50 [4]: 16 nM; EC50 [22]: 300 nM; EC50 (Thromboxane A2 receptor [23]): 24 nM; EC50 [24]: 90 nM; EC50 [25]: 2000 nM | CCCCC(C)(C)[C@H](O)/C=C/[C@@H]1[C@@H](C/C=C\CCCC(=O)O)[C@@H](O)C[C@H]1O
19 | > 10 µM | 290 nM | > 10 µM | > 10 µM |  | COc1ccc(CC[C@H](O)CC[C@@H]2[C@@H](CCCCCCC(=O)O)[C@@H](O)C[C@H]2O)cc1
20 |  |  |  |  | EC50 [22]: 760 nM; EC50 (Thromboxane A2 receptor [20]): 2.4 µM; EC50 [26]: 5 µM | O=C(O)CCC/C=C\C[C@@H]1[C@@H](/C=C/[C@@H](O)COc2cccc(Cl)c2)[C@H](O)C[C@@H]1O [CLOPROSTENOL]
21 |  |  |  |  | EC50 [22]: 600 nM; EC50 [27]: 2300 nM; EC50 (Thromboxane A2 receptor [23]): 1400 nM | CCCCC[C@H](O)/C=C/[C@@H]1[C@@H](C/C=C\CCCC(=O)O)[C@@H](O)C[C@H]1O [DINOPROST]
